How the values were obtained:
Assay type in all cases: in vivo
mice = test: Sucrose pellet self-administration, extinction and cue-induced reinstatement
Procedure: Mice were first injected with UNC0642 (2 mg/kg, i.p) or vehicle-alone once daily for 10 days. Thirty minutes following the 10th dose, they began the first 2-hour sucrose self-administration session. The UNC0642 and vehicle injections occurred 30 minutes before the start of each sucrose self-administration, extinction, and reinstatement session. All self-administration experiments occurred in standard operant chambers with two nose-poke detectors, a house light, and a cue light and tone generator (Med Associates, Fairfield, Vt.). All sucrose-paired nose-pokes, including those during the timeout, were recorded and are reported as “paired nose pokes”. No fasting occurred during any stage of the experiment. During the 2-hour sessions, mice were trained to nose-poke in the paired side on a fixed-ratio 1 (FR1) schedule with 15-second timeout period after delivery of a single sucrose pellet. Concurrent with the pellet delivery, a cue tone and cue light (which is located immediately above the paired nose-poke port) are activated. All mice had ten self-administration sessions. […] Finally, we examined the number of nose-pokes on the paired side during timeout periods. Similar to the paired nose-poke data above, there was a slight effect on the interaction between UNC0642 treatment and sex. […] Overall, UNC0642 had no effect on sucrose-taking behavior as all groups increased their responding for sucrose pellets over time, and they learned and remembered the relationship between the reinforced (sucrose-paired) and the non-reinforced (unpaired) ports.
Sucrose-seeking behaviors were next tested in these same mice. Following a 7-day period in the home cage with ad libitum food and water, all mice began extinction training for 6 consecutive days (a model of context-associated sucrose-seeking behavior). […] Finally, light/tone cue-induced reinstatement behavior (a model of discreet cue-induced sucrose-seeking behavior) was tested one day after the 6th extinction session in a single 2-hour session. Mice were allowed to nose-poke for light and tone cues without receiving pellets. […] We also found UNC0642 had no effect on UNC0642 on the number of unpaired nose pokes during cue induced reinstatement of sucrose pellet self-administration (FIG. 9J; Three-Way ANOVA, Day: F1,26=6.739, p=0.0153, Sex: F1,26=6.739, p=0.0153, no other significant effects) and UNC0642 had no effect on the discrimination ratio between paired and unpaired nose pokes during cue-induced reinstatement of sucrose pellet self-administration (FIG. 9K; Three-Way ANOVA, Sex: F1,26=5.880, p=0.0226, no other significant effects).

[1] = test system: wild-type mice (both male and female); test: Drinking in the Dark binge-like ethanol drinking; conditions: 2 mg/kg i.p. for 10 days, 30 min before session, 20% ethanol, both sexes
Procedure: Since UNC0642 blocked stress-potentiated ethanol drinking in mice, as show above, we next tested whether UNC0642 could alter binge-like ethanol drinking in both sexes. Wild-type mice (both male and female) were given ethanol for 1 week in a “Drinking in the Dark” paradigm (Rhodes et al., 2005), a well-established alcohol model that is similar to binge-drinking in humans. Both male and female mice were given a single bottle of 20% ethanol in their home cage for 2 hours per day for 3 days. No alternative bottle of water was given in this experiment. On the 4th day, the access to the bottle was extended to 4 hours to model a binge-drinking session. After the first week, mice were split into even groups and were injected with UNC0642 (2 mg/kg, i.p.) or vehicle for 10 days 30 minutes before each drinking session began. Mice were tested for changes in baseline drinking and binge drinking for 2 weeks. […] Our data detected the well-documented sex differences in alcohol intake in these assays, but there was no significant interaction between sex and UNC0642 treatment.

[2] = test system: wild-type mice (both male and female); test: Elevated plus maze (anxiety-like behavior)
Procedure: These same mice were tested on a 5-minute elevated plus maze protocol at 1-3 days after their final drinking session. 30-60 minutes following an i.p. injection of either 0, 1, 2, or 4 mg/kg UNC0642, mice were allowed to freely explore the open and closed arms of the elevated plus maze. Less anxious mice typically explore the open arms more quickly and spend more time exploring the open arms. […] No statistically significant effects were observed on the time spent in the open arms, as UNC0642 had no effect on open arms time in the elevated plus maze (see FIG. 7D; One-Way ANOVA, F3,42=0.7372, p=0.5359, 1 outlier removed from the 1 mg/kg group with a Grubbs test) or on the number of entries into the open arms, meaning that UNC0642 had no effect on the number of open arm entries in the elevated plus maze (FIG. 7E; One-Way ANOVA, F3,42=1.396, p=0.2573, 1 outlier removed from the 0 mg/kg group with a Grubbs test). […] Thus, in some embodiments, it can be particularly useful for treating individuals with co-morbid psychiatric diseases and/or disorders and AUD/SUD.

Question: Which results are given for `COc1cc2c(NC3CCN(C(C)C)CC3)nc(N3CCC(F)(F)CC3)nc2cc1OCCCN1CCCC1` [UNC0642, 2-(4,4-Difluoropiperidin-1-yl)-6-methoxy-N-[1-(propan-2-yl)piperidin-4-yl]-7-[3-(pyrrolidin-1-yl)propoxy]quinazolin-4-amine]?
Answer: number of sucrose pellets earned during sucrose pellet self-administration (mice; 2 mg/kg i.p. once daily, 30 min before session, FR1, FIG. 9A): no effect; number of paired nose pokes during extinction learning following sucrose pellet self-administration (mice; 2 mg/kg i.p., 6 extinction days, FIG. 9F): no effect; number of unpaired nose pokes during sucrose pellet self-administration (mice; 2 mg/kg i.p., FIG. 9C): no effect; discrimination ratio between paired and unpaired nose pokes during sucrose pellet self-administration (mice; 2 mg/kg i.p., FIG. 9D): no effect; unpaired nose-pokes during extinction learning following sucrose pellet self-administration (mice; 2 mg/kg i.p., FIG. 9G): no effect; discrimination ratio between paired and unpaired nose pokes during extinction learning (mice; 2 mg/kg i.p., FIG. 9H): no effect; number of paired nose pokes during cue induced reinstatement of sucrose pellet self-administration (mice; 2 mg/kg i.p., FIG. 9I): no effect; number of unpaired nose pokes during cue induced reinstatement of sucrose pellet self-administration (mice; 2 mg/kg i.p., FIG. 9J): no effect; discrimination ratio between paired and unpaired nose pokes during cue-induced reinstatement (mice; 2 mg/kg i.p., FIG. 9K): no effect; paired nose-pokes during self-administration, female mice (mice; 2 mg/kg i.p., female mice in UNC0642 group, Day X Treatment interaction, FIG. 9B): slight increase; timeout responding, female mice (mice; 2 mg/kg i.p., female mice in UNC0642 group, FIG. 9E): slightly higher; number of paired nose pokes during sucrose pellet self-administration (mice; 2 mg/kg i.p., overall, FIG. 9B): no overall effect; number of timeout responses on the paired nose port during sucrose pellet self-administration (mice; 2 mg/kg i.p., overall, FIG. 9E): no overall effect; single-bottle alcohol drinking, baseline 2 hour sessions ([1]; FIG. 8A): no effect; binge alcohol drinking, 4-hour binge sessions ([1]; FIG. 8B): no effect; time spent in the open arms of the elevated plus maze ([2]; 1, 2, 4 mg/kg i.p., FIG. 7D): no effect; number of open arm entries in the elevated plus maze ([2]; 1, 2, 4 mg/kg i.p., FIG. 7E): no effect; latency to explore the open arms of the elevated plus maze ([2]; all 3 doses (1, 2, 4 mg/kg i.p.), 30-60 min after injection, 5-minute test, both sexes, FIG. 7C): reduced the latency

Source: patent US20230218631A1 (priority 2020, published 2023)
